Data from PMC7036753, “Lipidated Analogs of the LL-37-Derived Peptide Fragment KR12—Structural Analysis, Surface-Active Properties and Antimicrobial Activity” (International Journal of Molecular Sciences, 2020).
Values after ≈ are worked out from the molar mass of the structure shown. Peptide text beside a SMILES is read from it. * marks the point of attachment. Bz = O=C(c1ccccc1)*

Key:
[1] = tested on: human red blood cells (hRBCs); assay: Hemolysis assay; type: cell-based; settings: concentration range 0.5–256 μg/mL
Protocol: Then the stock RBCs solution was added up to a final volume of 100 μL with a 4% concentration of erythrocytes (v/v). The control wells for 0 and 100% hemolysis were also prepared. They consisted of RBCs suspended in PBS and 1% of Triton-X 100, respectively.

[2] = tested on: E. faecium ATCC 700221; type: cell-based, Enterococcus faecium; settings: E. faecium ATCC 700221; Mueller-Hinton Broth, 18 h
Protocol: (§1) Examination of antimicrobial activity of the test compounds was conducted on reference strains of bacteria assigned to ESKAPE group of pathogens: Enterococcus faecium ATCC 700221, Klebsiella pneumoniae ATCC 700603, Acinetobacter baumannii ATCC BAA-1605, Pseudomonas aeruginosa ATCC 9027, Klebsiella aerogenes ATCC 13048 (formerly Enterobacter aerogenes) and reference strains of Staphylococcus aureus, namely: S. aureus ATCC 25923, S. aureus ATCC 6538, S. aureus ATCC 33591 (MRSA), S. aureus ATCC 9144 and S. aureus ATCC 12598. All the strains were stored at −80 °C in Roti®-Store cryo vials (Carl Roth GmbH, Karlsruhe, Germany) and before the tests were transferred into fresh Mueller-Hinton Medium (BioMaxima, Lublin, Poland) and incubated for 24 h at 37 °C. Subsequently, each bacterial inoculum was seeded on Mueller-Hinton Agar plates (BioMaxima) and incubated again for 24 h. The cultures prepared in this way were used in further antimicrobial assays and prepared as described above. The MIC values were determined by the broth microdilution method according to Clinical and Laboratory Standards Institute Protocol. For this purpose, initial inoculums of bacteria (0.5 × 10^5 colony forming unit (CFU)/mL) in Mueller–Hinton Broth were exposed to the ranging concentrations of compounds (0.5–256 µg/mL) and incubated for 18 h at 37 °C. The experiments were conducted on 96-well microtiter plates, with a final volume of 100 µL. Cell densities were adjusted spectrophotometrically (Multiskan™ GO Microplate Spectrophotometer, Thermo Scientific) at 600 nm. The MICs were taken as the lowest drug concentration at which a visible growth of microorganisms was inhibited. All experiments were conducted in triplicate and included positive (growth) and negative (sterility) controls.

[3] = tested on: human keratinocytes (HaCaT); type: cell-based; settings: HaCaT, MTT, 24 h
Protocol: The cytotoxicity of test compounds (IC50) was evaluated for human keratinocytes (HaCaT, ATCC) using classic MTT assay on 96-well plates. In this assay, a colorimetric determination of the cell metabolic activity was carried out. Specifically, the color intensity reflects the number of live cells that can be measured spectrophotometrically. […] A day after plating 500 cells per well, a series of concentrations (0.5–500 μg/mL) of the test compounds were added. Dimethyl sulfoxide (DMSO) was used as a control in cells at a final concentration of 1.0% (v/v), which was related to the maximal concentration of the solvent compounds used in the experiment. After 24 h of incubation with test compounds, a medium containing 1 mg/mL of MTT was added up to a final concentration of 0.5 mg/mL and subsequently incubated at 37 °C for 4 h. Then, the medium was aspirated and the formazan product was solubilized with DMSO. The background absorbance at 630 nm was subtracted from that at 570 nm for each well (Epoch, BioTek Instruments, Winooski, VT, USA). Six replicates were conducted for each concentration. All experiments were repeated at least twice and the resulting IC50 values were calculated with a GraFit 7 software (v. 7.0, Erithacus, Berkley, CA, USA).

[4] = tested on: A. baumannii ATCC BAA-1605; type: cell-based, Acinetobacter baumannii; settings: A. baumannii ATCC BAA-1605; Mueller-Hinton Broth, 18 h
Protocol: as §1

[5] = tested on: S. aureus ATCC 12598; type: cell-based, Staphylococcus aureus; settings: S. aureus ATCC 12598; Mueller-Hinton Broth, 18 h
Procedure, shortened: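 Following CLSI guidance, compounds (0.5–256 µg/mL) are incubated with bacteria (0.5 × 10^5 CFU/mL, Mueller–Hinton broth) for 18 h at 37 °C. Each MIC reflects complete visible growth inhibition, measured in triplicate with growth and sterility controls.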

SMILES: CC[C@H](C)[C@H](NC(=O)[C@H](CCCNC(=N)N)NC(=O)[C@H](CCC(N)=O)NC(=O)[C@@H](NC(=O)[C@@H](NC(=O)[C@H](CCCNC(=N)N)NC(=O)[C@H](CCCCN)NC(=O)c1ccccc1)[C@@H](C)CC)C(C)C)C(=O)N[C@@H](CCCCN)C(=O)N[C@@H](CC(=O)O)C(=O)N[C@@H](Cc1ccccc1)C(=O)N[C@@H](CC(C)C)C(=O)N[C@@H](CCCNC(=N)N)C(N)=O [VIII, Benzoic acid-KR12-NH2] (Bz-KRIVQRIKDFLR-NH2)
- hemolysis of hRBCs [1]: did not cause hemolysis
- MIC [2]: 1 µg/mL (≈ 0.597 µM)
- IC50 [3]: 40.50 µg/mL (≈ 24.2 µM)
- MIC [4]: 16 µg/mL (≈ 9.55 µM)
- MIC [5]: 16 µg/mL (≈ 9.55 µM)
